Test results: patent US3973021A, “2-[2-(5-Nitro-2-furyl)vinyl]-4-(phydroxyanilino)quinazoline as a bactericide” (Diamond Shamrock Corporation, priority 1975, dated 1976)

Assays:
[1] = Example VII: 4 week chick feeding test, weight gain and feed efficiency; assay type: in vivo, broiler cross chicks; details: analysis of variance; over Basal Ration + Bacitracin
Description: One hundred twenty day-old broiler cross chicks were weight equalized into 15 groups of 8 chicks each and placed in battery brooders. The 40 chick treatment groups (5 replicates) were fed the one of the three rations described below for a four week period. weekly measurements of body weights and feed consumption were made by replicate, and these measurements used to calculate weight gain and feed efficiency.
The commercial type broiler starter basal ration which was used in this study was designated as the Basal Ration, and had the following composition:
The preceding basal ration was mixed with bacitracin at a level of 4 g/T as the only growth stimulant to simulate commercial practice. This mixture was designated as the Basal Ration + Bacitracin (4 g/T) and constituted the negative control in this study.
A second ration was prepared by fortifying the Basal Ration + bacitracin described above with the Product from Example I above at a level of 200 g/T, and was designated as Basal Ration + Bacitracin + Product of Example I (200 g/T). A third ration was prepared by fortifying the Basal Ration + bacitracin described above with chlortetracycline (CTC) at a level of 200 g/T, and was designated as Basal Ration + Bacitracin + Chlortetracycline (200 g/T).
The term "growth promotion" is used herein to describe the beneficial effect of a compound in eliciting a more rapid of weight gain when compared to the weight gain of control animals not fed the compound. "Feed efficiency" is a term regularly used in animal husbandry and is a measure of the pounds of feed required to produce a pound of gain in the weight of the animal. A lower mathmatical value for feed efficiency reflects improved performance.

[2] = Example IX: chick feeding test, titration dosage; assay type: in vivo, broiler cross chicks
Description: (§1) Day old broiler cross chicks were weight equalized into groups of 8 chicks each and were placed in battery brooders. The 32 chick treatment groups (4 replicates) were fed one of the five rations described below for a four week period. Weekly measurements of body weights and feed consumption were made by replicate, and these measurements used to calculate weight gain and feed efficiency.
The concentrations used in this test were 6.25, 12.5, 25, 50, 100, 200 and 400 g of the Product of Example I per ton of the Basal Ration described in Example VII above. The same number and size chick treatment groups were used in this test as in Example VIII above.

[3] = Example VIII: 4 week chick feeding test at low levels; assay type: in vivo, broiler cross chicks; details: Table II, compared with other growth promotants
Description: as §1
The basal ration was the basal ration used in Example VII above. The remaining five rations wer obtained by mixing the indicated quantities of bacitracin (4 g/T), chlortetracycline (10 g/T), product of Example I (10 g/T), and product of Example II of U.S. Pat. No. 3,542,784 -- Burch (10 g/T) as growth promotants with the basal ration.

[4] = Example XII: 4 week chick feeding test, first set (Table VI); assay type: in vivo, broiler cross chicks; details: Table VI
[5] = Example XIII: 6 week swine feeding test, growth rate and feed efficiency; assay type: in vivo, weanling pigs; details: Table VIII
Description: Thirty-six weanling pigs weighing approximately thirty pounds each in good physical condition and originating from a common source were used in these tests. The pigs were allocated into sex and weight equalized pens of six pigs each. A one week period was allowed for acclimatization before testing. Three replicates of six pigs were fed the basal ration described below, and three replicates were fed the same basal ration supplemented with 25 g/T of the product of Example I.
The basal ration was a 17% commercial corn-soya pelletized formulation which was free of antibiotic and drug components. Composition of the basal ration formulation was: […]
The rations were offered ad libitum from six bushel self-feeders with a continuous supply of fresh water. The same ration formulations were used throughout the six week feeding period. Individual pig weighing were made after 0,2,4 and 6 (termination) week periods. Feed consumption records were kept on a pen basis, with feed efficiency conversion being compiled at the end of the 2nd, 4th and 6th (termination) week of feeding. Complete morbidity and mortality records were kept.

[6] = test system: S. faecalis, E. rhusiopathiae, B. bronchiseptica, S. agalactiae, Streptococcus group E and Vibrio coli; assay: Bactericide test, comparison with chlortetracycline; assay type: cell-based; details: Table A
Description: Test formulations were examined for bactericidal and/or bacteriostatic activity against the test organisms shown in Tables A and B. These organisms were chosen as being representative of commercially important pathogens affecting animal agriculture. The antibiotic chlortetracycline was chosen as a positive control, since it has a broad spectrum of activity against a large number of organisms, and its activity can be used for comparative purposes.
Basic test formulations of the product of Examples I, II, III, and of chlortetracycline were prepared by dissolving 16 mg (0.016 g) in 2.0 ml of stock emulsifier solution (0.25% Triton X-155 in acetone by volume) and making each solution up to 50 ml with deionized water. The concentration of the test compound in the basic formulation was 320 ppm. Lower concentrations of the test compound were obtained by diluting the basic formulation with a 4% solution of the stock emulsifier in deionized water so that each dilution in the series differed only in test compound content.
Nutrient-tryptic soy agar (NTA) consisting of 2.0% Difco Bactoagar 0.8% nutrient broth (Difco), and 0.5% tryptic soy broth (Difco) was prepared and sterilized by autoclaving. A 2 ml aliquot of each test formulation was added to 8 ml of molten NTA. This mixture was then plated in a sterile polystyrene petri dish (100 × 15 mm). After the agar was set, suspensions of each of the test organisms were simultaneously streaked onto the surface of the agar. The inoculated plates were incubated for 48 hr. at 28°C. The inhibition of growth of each organism was rated by visual comparison with the organism developing on non-treated agar. Growth inhibition reported as percent control was rated in three categories as follows: 0% control, growth equivalent to that on non-treated agar; 50% control, sparse development and separated colonies; 100% control, no visible growth or development of colonies.

[7] = Example XI: 4 week chick feeding test, five replicates; assay type: in vivo, broiler cross chicks
Description: (§2) This example compares growth promotion activity of the product of Example I with other growth promotants at a concentration of 25 g/T in the Basal Ration described in Example VII. The other growth promotants include the product described in Example I of U.S. Pat. No. 3,542,784 -- Burch and quinoxaline-1,4-dioxide. Day old broiler cross chicks were weight equalized into groups of 8 chicks each, and four replicates of 8 chicks each were fed the experimental rations over a 4 week period.
The growth promotion tests described in Example X were repeated with the exception that fives replicates of 8 chicks each were fed the formulations described in Table V for four weeks.

[8] = Example XII: 4 week chick feeding test, repeat with five replicates (Table VII); assay type: in vivo, broiler cross chicks; details: Table VII
[9] = Example X: 4 week chick feeding test, 25 g/T; assay type: in vivo, broiler cross chicks
Description: as §2

O=[N+]([O-])c1ccc(C=Cc2nc(Nc3ccc(O)cc3)c3ccccc3n2)o1 [Example I, 2-[2-(5-nitro-2-furyl)vinyl]-4-(p-hydroxyanilino)quinazoline]
statistical significance of improved feed efficiencies [1]: significant at the 99.9% level of probability
statistical significance of improved weight gains [1]: significant at the 99.5% level of probability
growth promotion (in words) ([2]; 12.5 g/T): noticeable growth promotion
weight gain and feed efficiency (in words) ([2]; 25 and 50 g/T): improvements in weight gain and feed efficiency
weight gain (in words) ([2]; 100 g/T): absence of weight gain improvement
improvement (in words) ([2]; 200 g/T): substantial improvements
optimum concentration ([2]; economics and efficacy): 25 g/T
growth promotion (in words) [3]: greater growth promotion than any of the other growth promotants
growth rate / feed efficiency response (in words) [4]: moderate improvement in production parameters
feed efficiency (in words) [5]: enhanced feed efficiency
growth (in words) [5]: very substantial growth improvement
effectiveness relative to chlortetracycline (in words) [6]: considerably more effective
combined effect with bacitracin (in words) ([7]; 25g/T + 25g/T bacitracin): synergistic effects
Improved Response Over Basal Ration: Feed Efficiency ([7]; 25g/T + Bacitracin (25g/T)): +7.5%
Improved Response Over Basal Ration: Gain ([7]; 25g/T + Bacitracin (25g/T)): +4.6%
feed efficiency (in words) ([7]; Table V): substantial improvement in feed efficiency
growth rate (in words) ([7]; Table V): moderate improvement in growth rate
growth rate / feed efficiency response (in words) [8]: moderate improvement in production parameters
Average 4 Week Performance: Feed Efficiency ([9]; 25g/T): 1.503
Improved Response Over Basal Ration: Feed Efficiency ([9]; 25g/T): +3.2%
Improved Response Over Basal Ration: Gain ([9]; 25g/T): +6.2%
growth rate and feed efficiency response (in words) ([9]; 25 g/T, Table IV): strongest response in growth rate and feed efficiency
